Holding throughout (assay type): cell-based, Murine
The target in assay [1] is HER2 wild type Ba/F3 cell line (Homo sapiens, UniProt P04626). Nature of the assay: Ba/F3 cell proliferation MTS assay, HER2 wild type. Conditions: HER2 wild type Ba/F3 cells, 72 hours. (Tetrazolium dyes change colour on reduction, which living cells bring about.)
Procedure: (§1) Murine Ba/F3 cells engineered to express mutant and wild type EGFR or HER2 protein were used to perform single drug screens. Cell viability was assessed after 72 hours of compound exposure using the colorimetric cell proliferation MTS assay kit (Promega).
(§2) The curves were fitted using a non-linear regression model with a sigmoidal dose response.
Assay [2] concerns the target HER2 InsYVMA Ba/F3 cell line (Homo sapiens, UniProt P04626, DUP772-775, cells depend on it). Nature of the assay: Ba/F3 cell proliferation MTS assay, HER2 InsYVMA.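 Further: murine Ba/F3 cells engineered to carry mutant HER2, viability read colorimetrically by MTS after 72 h of exposure, EC50 from sigmoidal non-linear regression of dose response.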 To be noted: 72 hours.
Procedure: as §1, §2
Assay [3] deals with EGFR wild type Ba/F3 cell line (Homo sapiens, UniProt P00533, cells depend on it, form not given). Nature of the assay: Ba/F3 cell proliferation MTS assay, EGFR wild type. To be noted: 72 hours.
Assay [4] has as its target EGFR InsSVD Ba/F3 cell line (Homo sapiens, UniProt P00533, DUP768-770, cells depend on it). As to the kind of experiment: Ba/F3 cell proliferation MTS assay, EGFR InsSVD. To be noted: EGFR InsSVD (D770_N771insSVD) Ba/F3 cells, 72 hours.
Procedure: (§3) Different EGFR exon 20 insertion mutations were introduced via site directed mutagenesis into full length EGFR using the Quick Change Site-Directed Mutagenesis kit (Stratagene; La Jolla, Calif.) according to the manufacturer's instructions. All constructs were confirmed by DNA sequencing. The constructs were shuttled into the retroviral vector JP1540 using the BD Creator™ System (BD Biosciences). […] Stable clones were obtained by selection in puromycin (2 μg/ml) and growth in IL-3 free media.
as §1, §2
Assay [5] has as its target EGFR InsGY Ba/F3 cell line (Homo sapiens, UniProt P00533, DELINS770-770GY, cells depend on it). As to the kind of experiment: Ba/F3 cell proliferation MTS assay, EGFR InsGY. To be noted: EGFR InsGY (D770delinsGY) Ba/F3 cells, 72 hours.
Procedure: as §3, §1, §2

The text below walks through data of US10550112B2, “Pyrimidines as EGFR inhibitors and methods of treating disorders” (Dana-Farber Cancer Institute, Inc., priority 2015, dated 2020).

Usually EC50 stands for the concentration giving half of the maximal effect. Higher therefore signals a need for much substance.

HER2 wild type Ba/F3 cell line, sequence (P04626 whole entry, stated change not applied): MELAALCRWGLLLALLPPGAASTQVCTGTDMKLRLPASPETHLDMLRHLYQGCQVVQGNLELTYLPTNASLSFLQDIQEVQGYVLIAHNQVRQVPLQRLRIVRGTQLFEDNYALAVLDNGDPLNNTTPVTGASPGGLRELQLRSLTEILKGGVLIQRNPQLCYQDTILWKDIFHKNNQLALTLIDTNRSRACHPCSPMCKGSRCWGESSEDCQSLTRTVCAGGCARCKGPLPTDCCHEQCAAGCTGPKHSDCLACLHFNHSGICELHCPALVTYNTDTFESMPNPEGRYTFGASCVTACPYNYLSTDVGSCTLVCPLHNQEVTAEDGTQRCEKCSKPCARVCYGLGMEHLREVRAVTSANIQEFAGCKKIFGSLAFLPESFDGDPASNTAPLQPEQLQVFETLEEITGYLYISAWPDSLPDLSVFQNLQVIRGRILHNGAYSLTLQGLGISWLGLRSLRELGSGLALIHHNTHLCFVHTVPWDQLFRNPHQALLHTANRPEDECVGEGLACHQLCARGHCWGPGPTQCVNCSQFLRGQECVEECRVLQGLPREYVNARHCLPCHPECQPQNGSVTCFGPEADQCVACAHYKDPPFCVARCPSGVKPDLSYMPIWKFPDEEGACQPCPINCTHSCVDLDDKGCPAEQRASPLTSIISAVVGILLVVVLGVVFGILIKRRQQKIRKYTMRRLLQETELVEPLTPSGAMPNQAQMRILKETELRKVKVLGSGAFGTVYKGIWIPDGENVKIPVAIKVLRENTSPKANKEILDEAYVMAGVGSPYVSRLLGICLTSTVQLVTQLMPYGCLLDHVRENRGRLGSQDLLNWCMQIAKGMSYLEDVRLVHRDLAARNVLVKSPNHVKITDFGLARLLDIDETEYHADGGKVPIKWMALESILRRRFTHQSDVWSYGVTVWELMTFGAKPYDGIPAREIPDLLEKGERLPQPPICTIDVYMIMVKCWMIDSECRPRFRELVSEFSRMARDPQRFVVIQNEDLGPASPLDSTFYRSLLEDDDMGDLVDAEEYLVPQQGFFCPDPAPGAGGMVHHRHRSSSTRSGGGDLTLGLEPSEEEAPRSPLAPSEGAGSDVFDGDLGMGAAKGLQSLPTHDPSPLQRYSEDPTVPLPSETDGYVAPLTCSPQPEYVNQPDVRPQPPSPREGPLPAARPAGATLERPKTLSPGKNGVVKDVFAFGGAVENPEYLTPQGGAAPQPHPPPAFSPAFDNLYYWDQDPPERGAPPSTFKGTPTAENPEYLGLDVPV
EGFR wild type Ba/F3 cell line, sequence (P00533 whole entry, stated change not applied): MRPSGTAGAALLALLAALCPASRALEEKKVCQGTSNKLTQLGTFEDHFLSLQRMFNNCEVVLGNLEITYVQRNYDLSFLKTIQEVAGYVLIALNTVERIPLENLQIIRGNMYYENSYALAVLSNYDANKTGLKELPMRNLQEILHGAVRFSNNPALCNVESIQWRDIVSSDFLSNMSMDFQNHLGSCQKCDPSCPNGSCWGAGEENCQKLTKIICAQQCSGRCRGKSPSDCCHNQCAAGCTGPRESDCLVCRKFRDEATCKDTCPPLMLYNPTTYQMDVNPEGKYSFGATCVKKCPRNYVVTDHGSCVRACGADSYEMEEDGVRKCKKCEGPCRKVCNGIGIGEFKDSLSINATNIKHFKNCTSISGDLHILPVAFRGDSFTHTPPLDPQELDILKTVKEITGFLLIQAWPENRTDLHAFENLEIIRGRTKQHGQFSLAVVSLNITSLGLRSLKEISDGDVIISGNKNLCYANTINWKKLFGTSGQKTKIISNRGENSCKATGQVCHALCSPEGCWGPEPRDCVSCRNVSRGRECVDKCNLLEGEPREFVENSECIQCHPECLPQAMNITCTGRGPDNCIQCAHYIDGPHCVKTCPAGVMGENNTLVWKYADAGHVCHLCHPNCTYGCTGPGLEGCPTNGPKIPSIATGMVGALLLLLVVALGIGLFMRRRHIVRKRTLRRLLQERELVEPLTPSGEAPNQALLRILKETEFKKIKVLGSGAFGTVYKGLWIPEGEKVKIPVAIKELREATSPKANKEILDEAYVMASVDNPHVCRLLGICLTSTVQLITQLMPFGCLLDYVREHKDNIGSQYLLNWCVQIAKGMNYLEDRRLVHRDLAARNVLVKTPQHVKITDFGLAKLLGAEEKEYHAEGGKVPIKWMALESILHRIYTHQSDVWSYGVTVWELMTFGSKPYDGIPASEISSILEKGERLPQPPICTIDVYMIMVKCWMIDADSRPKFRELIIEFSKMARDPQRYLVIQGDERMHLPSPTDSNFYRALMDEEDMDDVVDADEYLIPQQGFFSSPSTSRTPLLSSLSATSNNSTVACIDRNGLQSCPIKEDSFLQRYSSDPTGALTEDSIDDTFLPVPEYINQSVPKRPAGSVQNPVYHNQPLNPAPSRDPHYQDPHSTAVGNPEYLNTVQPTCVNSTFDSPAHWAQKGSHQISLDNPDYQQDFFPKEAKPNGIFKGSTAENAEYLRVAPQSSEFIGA
HER2 InsYVMA Ba/F3 cell line, sequence (P04626 with tags, fused parts or gaps DUP772-775): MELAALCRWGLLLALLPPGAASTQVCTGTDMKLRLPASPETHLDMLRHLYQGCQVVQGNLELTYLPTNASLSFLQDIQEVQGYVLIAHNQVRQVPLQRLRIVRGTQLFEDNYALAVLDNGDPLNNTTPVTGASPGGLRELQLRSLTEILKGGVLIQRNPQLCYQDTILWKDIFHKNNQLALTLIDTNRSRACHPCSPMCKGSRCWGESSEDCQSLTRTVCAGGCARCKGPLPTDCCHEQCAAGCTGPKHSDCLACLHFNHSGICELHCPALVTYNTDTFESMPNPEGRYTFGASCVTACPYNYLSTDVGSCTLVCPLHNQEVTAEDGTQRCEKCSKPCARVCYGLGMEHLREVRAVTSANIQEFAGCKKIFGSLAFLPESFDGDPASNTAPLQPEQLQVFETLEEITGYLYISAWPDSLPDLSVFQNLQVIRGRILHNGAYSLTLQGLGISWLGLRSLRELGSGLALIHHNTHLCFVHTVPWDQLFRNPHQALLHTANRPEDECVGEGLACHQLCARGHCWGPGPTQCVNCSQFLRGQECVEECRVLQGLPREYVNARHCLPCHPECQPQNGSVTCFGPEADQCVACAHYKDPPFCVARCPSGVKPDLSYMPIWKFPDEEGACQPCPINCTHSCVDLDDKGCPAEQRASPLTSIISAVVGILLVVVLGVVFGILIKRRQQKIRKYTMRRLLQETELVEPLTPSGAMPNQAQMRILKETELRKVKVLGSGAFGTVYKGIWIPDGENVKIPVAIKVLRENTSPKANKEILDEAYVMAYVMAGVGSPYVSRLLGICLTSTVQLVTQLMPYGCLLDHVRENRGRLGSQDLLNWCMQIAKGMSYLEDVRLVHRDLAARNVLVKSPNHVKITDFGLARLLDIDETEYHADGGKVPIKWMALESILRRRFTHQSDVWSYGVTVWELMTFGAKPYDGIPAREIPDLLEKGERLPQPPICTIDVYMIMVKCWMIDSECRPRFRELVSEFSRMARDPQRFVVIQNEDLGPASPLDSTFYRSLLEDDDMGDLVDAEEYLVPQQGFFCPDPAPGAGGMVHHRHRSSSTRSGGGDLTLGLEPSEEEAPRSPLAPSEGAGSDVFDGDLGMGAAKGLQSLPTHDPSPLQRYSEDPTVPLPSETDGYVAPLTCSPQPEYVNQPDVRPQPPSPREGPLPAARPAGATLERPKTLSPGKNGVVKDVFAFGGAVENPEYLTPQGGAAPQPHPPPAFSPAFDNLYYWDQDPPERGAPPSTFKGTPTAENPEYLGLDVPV
EGFR InsSVD Ba/F3 cell line, sequence (P00533 with tags, fused parts or gaps DUP768-770): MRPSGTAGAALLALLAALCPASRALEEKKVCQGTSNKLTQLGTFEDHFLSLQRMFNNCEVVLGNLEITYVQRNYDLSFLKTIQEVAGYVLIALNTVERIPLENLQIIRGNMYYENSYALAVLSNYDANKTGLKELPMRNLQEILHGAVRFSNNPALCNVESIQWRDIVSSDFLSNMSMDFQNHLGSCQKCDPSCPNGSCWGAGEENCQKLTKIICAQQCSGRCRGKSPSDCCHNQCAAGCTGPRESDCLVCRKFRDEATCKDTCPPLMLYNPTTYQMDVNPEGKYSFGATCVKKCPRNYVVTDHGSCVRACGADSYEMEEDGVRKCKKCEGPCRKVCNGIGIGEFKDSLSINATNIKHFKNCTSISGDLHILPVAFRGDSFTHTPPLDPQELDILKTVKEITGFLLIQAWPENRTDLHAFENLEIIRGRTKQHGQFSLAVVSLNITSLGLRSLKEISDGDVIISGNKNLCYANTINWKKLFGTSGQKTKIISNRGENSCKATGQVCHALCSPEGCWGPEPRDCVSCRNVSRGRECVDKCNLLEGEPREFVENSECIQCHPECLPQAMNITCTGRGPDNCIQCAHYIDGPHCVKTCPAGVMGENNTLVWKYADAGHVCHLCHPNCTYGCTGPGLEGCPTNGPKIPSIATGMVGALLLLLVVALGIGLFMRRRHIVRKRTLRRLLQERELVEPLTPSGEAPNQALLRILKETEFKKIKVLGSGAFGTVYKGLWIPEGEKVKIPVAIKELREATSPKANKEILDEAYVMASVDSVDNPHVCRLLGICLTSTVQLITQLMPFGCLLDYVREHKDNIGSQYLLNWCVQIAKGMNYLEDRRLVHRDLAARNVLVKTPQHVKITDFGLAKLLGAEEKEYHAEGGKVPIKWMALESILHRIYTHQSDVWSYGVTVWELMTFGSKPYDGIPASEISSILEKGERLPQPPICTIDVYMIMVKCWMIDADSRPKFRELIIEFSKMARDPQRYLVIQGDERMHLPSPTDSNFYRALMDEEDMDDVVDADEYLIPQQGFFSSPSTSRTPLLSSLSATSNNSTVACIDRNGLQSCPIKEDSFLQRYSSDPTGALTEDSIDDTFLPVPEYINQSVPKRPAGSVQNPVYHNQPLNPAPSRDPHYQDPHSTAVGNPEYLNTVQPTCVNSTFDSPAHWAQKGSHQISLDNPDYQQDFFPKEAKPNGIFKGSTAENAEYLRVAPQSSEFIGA

Turning to `Cn1cc(Nc2nccc(N(C(=O)OCc3ccc(F)cc3)c3cccc(NC(=O)/C=C/CN4CCOCC4)c3)n2)cn1` [Compound I-26, 4-fluorobenzyl (E)-(2-((1-methyl-1H-pyrazol-4-yl)amino)pyrimidin-4-yl)(3-(4-morpholinobut-2-enamido)phenyl)carbamate], the EC50 in assay [1] is less than 100 nM; in assay [2] it was 100 to 500 nM; in assay [3], less than 100 nM; in assay [4], 500 to 1000 nM; in assay [5], 100 to 500 nM.
Turning to `C=CC(=O)Nc1cccc(N(C(=O)OCc2ccc(F)cc2)c2ccnc(Nc3cnn(C4CCN(C)C4)c3)n2)c1` (centres unmarked) [Compound I-32, 4-fluorobenzyl (3-acrylamidophenyl)(2-((1-(1-methylpyrrolidin-3-yl)-1H-pyrazol-4-yl)amino)pyrimidin-4-yl)carbamate], the 50% effective concentration (EC50) in assay [1], in assay [2], in assay [3], in assay [4] and in assay [5] was less than 100 nM throughout.
For `Cn1cc(Nc2nccc(N(C(=O)OCc3ccc(F)cc3)c3cccc(NC(=O)/C=C/CN4CCC(O)CC4)c3)n2)cn1` [Compound I-25, 4-fluorobenzyl (E)-(3-(4-(4-hydroxypiperidin-1-yl)but-2-enamido)phenyl)(2-((1-methyl-1H-pyrazol-4-yl)amino)pyrimidin-4-yl)carbamate], the values for the EC50 in assay [1], in assay [2] and in assay [3] were 100 to 500 nM, greater than 1000 nM and 100 to 500 nM, respectively.
As for `C=CC(=O)Nc1cccc(N(C(=O)OCc2ccc(F)cc2)c2ccnc(Nc3ccn(C)n3)n2)c1` [Compound I-4, 4-fluorobenzyl (3-acrylamidophenyl)(2-((1-methyl-1H-pyrazol-3-yl)amino)pyrimidin-4-yl)carbamate], the EC50 in assay [1], in assay [2], in assay [3], in assay [4] and in assay [5] was less than 100 nM in each case.
As to `C=CC(=O)Nc1cccc(N(C(=O)OCc2csc3ccccc23)c2ccnc(Nc3ccn(C)n3)n2)c1` [Compound I-18, benzo[b]thiophen-3-ylmethyl (3-acrylamidophenyl)(2-((1-methyl-1H-pyrazol-3-yl)amino)pyrimidin-4-yl)carbamate], the EC50 in assay [1], in assay [3] and in assay [5] was greater than 1000 nM each time.
As for `C=CC(=O)Nc1cccc(N(C(=O)OCc2ccc(F)cc2)c2ccnc(Nc3cnn(C)c3C(F)(F)F)n2)c1` [Compound I-23, 4-fluorobenzyl (3-acrylamidophenyl)(2-((1-methyl-5-(trifluoromethyl)-1H-pyrazol-4-yl)amino)pyrimidin-4-yl)carbamate], the EC50 is less than 100 nM in assay [1]; 100 to 500 nM in assay [2]; less than 100 nM in assay [3]; 100 to 500 nM in assay [4]; 100 to 500 nM in assay [5].
As to `C=CC(=O)Nc1cccc(N(C(=O)OCc2ccc(F)cc2)c2ccnc(Nc3cnn(C4CCN(C)CC4)c3)n2)c1` [Compound I-30, 4-fluorobenzyl (3-acrylamidophenyl)(2-((1-(1-methylpiperidin-4-yl)-1H-pyrazol-4-yl)amino)pyrimidin-4-yl)carbamate], the EC50 in assay [1], in assay [2], in assay [3], in assay [4] and in assay [5] was less than 100 nM in each case.
Take `C=CC(=O)Nc1cccc(N(C(=O)OCc2ccc(F)cc2)c2ccnc(Nc3cnn(CCN4CCOCC4)c3)n2)c1` [Compound I-20, 4-fluorobenzyl (3-acrylamidophenyl)(2-((1-(2-morpholinoethyl)-1H-pyrazol-4-yl)amino)pyrimidin-4-yl)carbamate]: the concentration giving a half-maximal response (EC50) in assay [1] is less than 100 nM; in assay [2], less than 100 nM; in assay [3], less than 100 nM; in assay [4], 100 to 500 nM; in assay [5] it was less than 100 nM.
As for `C=CC(=O)Nc1cccc(N(C(=O)OCc2cc3ccccc3s2)c2ccnc(Nc3ccn(C)n3)n2)c1` [Compound I-6, benzo[b]thiophen-2-ylmethyl (3-acrylamidophenyl)(2-((1-methyl-1H-pyrazol-3-yl)amino)pyrimidin-4-yl)carbamate], the EC50 in assay [1] was 500 to 1000 nM; in assay [2] it was greater than 1000 nM; in assay [3] it was 500 to 1000 nM; in assay [4], 500 to 1000 nM; in assay [5], 100 to 500 nM.
As to `CN(C)C/C=C/C(=O)Nc1cccc(N(C(=O)OCc2ccc(F)cc2)c2ccnc(Nc3cnn(C)c3)n2)c1` [Compound I-28, 4-fluorobenzyl (E)-(3-(4-(dimethylamino)but-2-enamido)phenyl)(2-((1-methyl-1H-pyrazol-4-yl)amino)pyrimidin-4-yl)carbamate], the EC50 in assay [1] is less than 100 nM; in assay [2], less than 100 nM; in assay [3] it was less than 100 nM; in assay [4], greater than 1000 nM; in assay [5], 500 to 1000 nM.
For `C=CC(=O)Nc1cccc(N(C(=O)OCc2ccc(F)cc2)c2ccnc(Nc3cnn(C)c3)n2)c1` [Compound I-5, 4-fluorobenzyl (3-acrylamidophenyl)(2-((1-methyl-1H-pyrazol-4-yl)amino)pyrimidin-4-yl)carbamate], the EC50 in assay [1], in assay [2], in assay [3], in assay [4] and in assay [5] was less than 100 nM throughout.
With `C=CC(=O)Nc1cccc(N(C(=O)OCc2ccc(F)cc2)c2ccnc(Nc3cnn(C)c3C)n2)c1` [Compound I-22, 4-fluorobenzyl (3-acrylamidophenyl)(2-((1,5-dimethyl-1H-pyrazol-4-yl)amino)pyrimidin-4-yl)carbamate], the EC50 in assay [1], in assay [2], in assay [3], in assay [4] and in assay [5] was less than 100 nM in each case.
On to `C=CC(=O)Nc1cccc(N(C(=O)OCc2cc3ccccc3s2)c2ccnc(Nc3cnn(C)c3)n2)c1` [Compound I-7, benzo[b]thiophen-2-ylmethyl (3-acrylamidophenyl)(2-((1-methyl-1H-pyrazol-4-yl)amino)pyrimidin-4-yl)carbamate], for which the EC50 in assay [1] is 100 to 500 nM; in assay [2] it was 500 to 1000 nM; in assay [3], 100 to 500 nM; in assay [4] it was 100 to 500 nM; in assay [5], less than 100 nM.
On to `Cn1cc(Nc2nccc(N(C(=O)OCc3ccc(F)cc3)c3cccc(NC(=O)/C=C/CN4CCCCC4)c3)n2)cn1` [Compound I-24, 4-fluorobenzyl (E)-(2-((1-methyl-1H-pyrazol-4-yl)amino)pyrimidin-4-yl)(3-(4-(piperidin-1-yl)but-2-enamido)phenyl)carbamate], for which the half-maximal effective concentration (EC50) was less than 100 nM in assay [1]; less than 100 nM in assay [2]; less than 100 nM in assay [3]; 500 to 1000 nM in assay [4]; 100 to 500 nM in assay [5].
`Cn1cc(Nc2nccc(N(C(=O)OCc3ccc(F)cc3)c3cccc(NC(=O)/C=C/CN4CCCCCC4)c3)n2)cn1` [Compound I-27, 4-fluorobenzyl (E)-(3-(4-(azepan-1-yl)but-2-enamido)phenyl)(2-((1-methyl-1H-pyrazol-4-yl)amino)pyrimidin-4-yl)carbamate]: the EC50 in assay [1] is less than 100 nM; in assay [2] it was less than 100 nM; in assay [3], less than 100 nM; in assay [4], 500 to 1000 nM; in assay [5], 500 to 1000 nM.
